Reference: patent publication US20220280594A1, “APPLICATION OF POLYPEPTIDE OR DERIVATIVE THEREOF” (CHENGDU HUITAI BIOMEDICINE CO., LTD., priority 2019, published 2022)
Ends that are not written are not given here. PEG = not defined here

Legend:
[1] = test system: human lung cancer cells (A549) subcutaneous xenograft; assay: lung cancer subcutaneous xenograft animal model, intratumoral injection; assay type: in vivo, mice (BALB/c-nu/nu); conditions: intratumoral 5 mg/kg once every other day, 20 days; for Weight of tumor (g) (mean ± SD): control 1.92 ± 0.13; for Volume of tumor (mm^3) (mean ± SD): control 1700.16 ± 305.72
Experimental: Experimental animals: 4-6 weeks old female immunodeficiency mice (BALB/c-nu/nu, Beijing Vital River Laboratory Animal Technology Co., Ltd.).
Subcutaneous xenograft animal model. The number of cells inoculated subcutaneously vin mice was about 2×10^6/200 μL. When the volume of the subcutaneous tumor was greater than 100 mm^3, the mice were randomly divided into groups and subjected to treatment. When the mass volume of the tumors in model control group reached 2000 mm^3 or the animal dies, the treatment ended. The animals were dissected, the tumors were taken out, and the weight and volume of the tumors were measured. During the period of the entire experiment, the mice were observed and the body weight was measured every other day.
The method used for the drug efficacy test in the animal model of the subcutaneous xenograft derived from lung cancer cells was as described in Example 5. The tumor cells were human lung cancer cells (A549), and the route of administration was intratumoral injection. There were two groups: the model control group and the polypeptide or its derivative treatment group (N1-N12). The drug dosage of the treatment group was 5 mg/kg, once every other day and the treatment time was 10 days.
The procedure of the efficacy test in this example, route and dosage of administration were the same as in Example 9. The peptides used in the experiment were N13-N32. The treatment time was 20 days.

[2] = test system: human melanoma cells (A375); assay: scratch assay, migration of A375 cells; assay type: cell-based; conditions: A375, 10 μM, 48 hours; control group 44.03 ± 6.21
Experimental: (§1) In the scratch assay, the cell migration rate was negatively correlated with the inhibitory effect of the drug component on tumor cell migration ability. The cell migration inhibition experiment was described as follows: tumor cells were cultured in vitro, cells in logarithmic growth phase were collected and seeded evenly in a 24-well plate at a density of 1-2×10^5 cells/well; the cells were cultured in a cell incubator until a monolayer was formed; a scratch tool was used to make a “-” (straight) scratch on the monolayer of cells; the cells were washed 1-3 times with PBS, and a medium (with 2% fetal bovine serum) containing specific test components was added to the culture. Experimental grouping: PBS control group; polypeptide or derivative thereof treatment group (N1-N54), 10 μM. Three independent parallel wells were set up in each group, and the cells were cultured continuously in a cell incubator for 48 hours. […] At least 3 representative images for each well were taken. ImageJ software was used to count the migration distance of the cells, and the cell migration rate was calculated as: cell migration rate (%)=(width of original scratch−width of current scratch)/width of original scratch×100.
This example was a scratch assay to evaluate the inhibitory effect of the polypeptide or derivative thereof (N1-N54) on the migration ability of human melanoma cells (A375). The experimental method was as described in Example 2.

[3] = test system: human pharyngeal squamous-cell carcinoma cells (Fadu); assay: scratch assay, migration of Fadu cells; assay type: cell-based; conditions: 10 μM, 48 hours, control group 28.76 ± 4.08
Experimental: as §1
This example was a scratch assay to evaluate the inhibitory effect of the polypeptide or derivative thereof (N1-N54) on the migration ability of human pharyngeal squamous-cell carcinoma cells (Fadu). The experimental method was as described in Example 2.

Substance | Weight of tumor (g) (mean ± SD) [1] | Volume of tumor (mm^3) (mean ± SD) [1] | Migration rate (%) (mean ± SD, P) [2] | Migration rate (%) (mean ± SD, P) [3]
N21: SEQ ID NO: 1 with deletion of positions 1-5 and 15-18 and addition of one amino acid at the amino terminal (SLAKENVTQD) | 0.9 ± 0.28 g | 967.35 ± 247.89 mm^3 | 8.29 ± 3.50,*** % | 16.87 ± 6.77,* %
N28: SEQ ID NO: 1 with deletion of positions 1-2 and 18 and PEG modification at the amino terminal ({PEG}-VRFLAKENVTQDAED; reading uncertain) | 0.81 ± 0.24 g | 1055.02 ± 222.45 mm^3 | 10.80 ± 2.66,*** % | 15.23 ± 3.59,* %
N19: SEQ ID NO: 1 with deletion of positions 1-5 and 15-18 and addition of two amino acids at the carboxyl terminal (LAKENVTQDRC) | 0.81 ± 0.29 g | 963.18 ± 185.31 mm^3 | 12.93 ± 3.34,*** % | 17.23 ± 3.53,* %
N29: SEQ ID NO: 1 with deletion of positions 1-5 and 15-18 and PEG modification at the amino terminal ({PEG}-LAKENVTQD; reading uncertain) | 0.82 ± 0.22 g | 949 ± 227.4 mm^3 | 14.01 ± 4.22,*** % | 12.27 ± 2.23,** %
N23: SEQ ID NO: 1 with substitution A7R, deletion of position 11 and of positions 15-18 (YRVRFLRKENTQDAED) | 0.83 ± 0.29 g | 838.73 ± 218 mm^3 | 11.13 ± 2.15,*** % | 16.93 ± 3.67,* %
N27: SEQ ID NO: 1 with addition of one amino acid at the carboxyl terminal and PEG modification at the carboxyl terminal (YRVRFLAKENVTQDAEDNC-{PEG}; reading uncertain) | 0.95 ± 0.22 g | 1059.51 ± 161.22 mm^3 | 12.52 ± 3.78,*** % | 15.99 ± 3.96,* %
N31: SEQ ID NO: 1 with deletion of positions 3, 4, 11 and 15-18 and PEG modification at the carboxyl terminal (YRFLAKENTQD-{PEG}; reading uncertain) | 0.71 ± 0.16 g | 900.88 ± 255.61 mm^3 | 12.5 ± 2.29,*** % | 12.13 ± 5.10,** %
N26: SEQ ID NO: 1 with substitution A15R, addition of one amino acid at the amino terminal and one at the carboxyl terminal (FYRVRFLAKENVTQDREDNC) | 0.8 ± 0.22 g | 1053.55 ± 175.83 mm^3 | 12.23 ± 2.48,*** % | 13.70 ± 4.57,** %
N25: SEQ ID NO: 1 with substitution N18R and addition of two amino acids at the carboxyl terminal (YRVRFLAKENVTQDAEDRCT) | 0.71 ± 0.18 g | 958.87 ± 351.9 mm^3 | 17.67 ± 2.41,** % | 9.89 ± 2.47,*** %
N32: SEQ ID NO: 1 with deletion of positions 1-3, addition of one amino acid and PEG modification at the carboxyl terminal (RFLAKENVTQDAEDNC-{PEG}; reading uncertain) | 0.88 ± 0.25 g | 984.03 ± 184.86 mm^3 | 18.22 ± 3.95,** % | 14.63 ± 4.96,* %
N13: SEQ ID NO: 1 with deletion of positions 15-18 and positions 1-5 (LAKENVTQD) | 1.09 ± 0.09 g | 986.7 ± 261.02 mm^3 | 16.28 ± 4.19,** % | 9.38 ± 2.46,*** %
N24: SEQ ID NO: 1 with substitution A7R, deletion of positions 1-2 and of position 18 (VRFLRKENVTQDAED) | 0.83 ± 0.29 g | 908.37 ± 256.24 mm^3 | 15.79 ± 4.16,** % | 14.07 ± 5.12,* %
N17: SEQ ID NO: 1 with addition of two amino acids to the carboxyl terminal (YRVRFLAKENVTQDAEDNCT) | 0.76 ± 0.26 g | 893.18 ± 234.75 mm^3 | 14.35 ± 2.52,*** % | 8.78 ± 2.34,*** %
N15: SEQ ID NO: 1 with substitution N18R and addition of one amino acid to the carboxyl terminal (YRVRFLAKENVTQDAEDRC) | 0.63 ± 0.13 g | 793.32 ± 173.3 mm^3 | 10.62 ± 2.53,*** % | 12.45 ± 4.28,** %
N14: SEQ ID NO: 1 with deletion of positions 1-5 and addition of one amino acid at the carboxyl terminal (LAKENVTQDAEDNC) | 1.09 ± 0.29 g | 913.68 ± 219.62 mm^3 | 6.28 ± 1.12,*** % | 12.90 ± 2.47,** %
N22: SEQ ID NO: 1 with substitution A7R, deletion of three amino acids at the amino terminal and of positions 15-18 (RFLRKENVTQD) | 0.83 ± 0.33 g | 835.73 ± 184.67 mm^3 | 5.12 ± 3.69,*** % | 15.11 ± 4.99,* %
